Results on 39 molecules are retold here after patent US9302996B2, “Continuous arycyclic compound” (MITSUBISHI TANABE PHARMA CORPORATION, priority 2010, dated 2016).

Common to all, as to assay type: in vivo
One assay concerns ICR mice. Nature of the assay: Triglyceride (TG) in blood plasma increase-inhibiting action due to lipid administration. Particulars: Mus musculus; male ICR mice, 5 mg/kg oral, lipid (Intralipos 20%) after 30 minutes, plasma TG 2 hours after lipid; read-out: Inhibiting rate of TG-increase in blood plasma (5 mg/kg). Here is the method: 6 to 9 weeks-old male ICR mice were fasted overnight, and Test compound suspended in 0.2% carboxymethyl cellulose solution was orally administered to the mice. A lipid (Intralipos 20%, OTSUKA PHARMACEUTICAL CO., LTD., 10 mL/kg) was orally administered after 30 minutes. Blood was collected from tail vein immediately before the lipid administration, and after 2 hours from the same to obtain blood plasma. Measurement of TG in blood plasma was carried out by using a triglyceride E Test Wako (Wako Pure Chemical Industries, Ltd.), and an increased value of TG in blood plasma by administration of the lipid was calculated. An increased value of TG in blood plasma in a solvent control group was used as a control, and an inhibiting rate in increase of TG in blood plasma in the Test compound administered group was calculated.

The subject of a further assay is C57BL/6J mice. Nature of the assay: Antifeeding activity (high fat diet intake up to 4 hours). Particulars: Mus musculus, male C57BL/6J mice, 5 mg/kg oral, food ingested up to 4 hours, read-out: Antifeeding rate (5 mg/kg). As for the experimental part:
7 to 10 weeks-old male C57BL/6J mice were fasted overnight, and the test compound suspended in 0.2% carboxymethylcellulose solution was orally administered. Immediately after the administration, high fat diet (Oriental Yeast Co., Ltd, 60 cal % fat) was provided and freely fed. An amount of food ingested up to 4 hours was measured, and a lowering rate (an antifeeding rate) of the amount of food ingested in the Test compound administered group was calculated as compared to that of the solvent control group as a control.

A further assay has as its system KK-Ay mice. Nature of the assay: Weight gain-inhibiting action, hypoglycemic effect, insulin in blood plasma lowering action in KK-Ay mice. The settings on record: male KK-Ay mice, high fat diet, 2 weeks; for inhibition in vivo at 30 mg/kg: Mus musculus, 336 h, 30 mg/kg/day oral. As for the experimental part:
To 8 weeks-old male KK-Ay mice were provided high fat diet (Oriental Yeast Co., Ltd, 60 cal % fat), and Test compound suspended in 0.2% carboxymethylcellulose solution was orally administered once a day. Oral administration was continued for 2 weeks, and a weight gain-inhibiting rate of the Test compound was calculated by using a weight gain amount of the solvent control group during the test period as 100%. After final administration, the mice were fasted overnight, and blood was collected from tail vein. Measurement of a blood-sugar level was carried out by using glucose Cα Test Wako (Wako Pure Chemical Industries, Ltd.), and measurement of insulin in blood plasma was carried out by using a mouse insulin measurement kit (Morinaga Institute of Biological Science, Inc.).

Where [1] appears, read: read-out: Hypoglycemic action (30 mg/kg/day).
The mark [2] stands for this setting: read-out: Insulin in blood plasma-lowering action (30 mg/kg/day).
The mark [3] stands for this setting: administration dose of 1 mg/kg/day oral.

Each structure is given as a SMILES string. Like-named read-outs stand apart in the source and are kept apart here. Marks after values point to notes of the source that are not given here.

With `Cc1cc(OCC(C)(C)C(=O)O)ncc1-c1ccc(-c2ncc(CC3CC3)[nH]2)c(C)c1` [Example 109], the inhibition in vivo at 5 mg/kg in the assay with ICR mice was found to be 50%; in the assay with C57BL/6J mice it was 41%.

For `CC(C)(COc1ccc(-c2ccc(-c3ncc(C(F)(F)F)[nH]3)cn2)c(F)c1)C(=O)O` [Example 64], the inhibition in vivo at 5 mg/kg with ICR mice stood at 60%; in the assay with C57BL/6J mice, 78%.

For `CC(C)(COc1ccc(-c2ccc(-c3ncc(C(F)(F)F)[nH]3)cn2)c(F)c1F)C(=O)O` [Example 75], in the assay on ICR mice, the inhibition in vivo at 5 mg/kg came to 5%.

As for `Cc1cc(OCC2(C(=O)O)CC2)ncc1-c1ccc(-c2ncc(C(F)(F)F)[nH]2)c(F)c1` [Example 133], the values for the inhibition in vivo at 5 mg/kg with ICR mice and with C57BL/6J mice were 75% and 83%, respectively.

For the molecule `CC(C)CCc1cnc(-c2ccc(-c3ccc(OCC(C)(C)C(=O)O)cc3)nc2)[nH]1` [Example 25], the inhibition in vivo at 5 mg/kg with ICR mice worked out at 54%; with C57BL/6J mice, 81%.

Regarding `COc1cc(OCC(C)(C)C(=O)O)ccc1-c1ccc(-c2ncc(C(F)(F)F)[nH]2)cn1` [Example 86-3), 3-[3-methoxy-4-[5-[5-(trifluoromethyl)-1H-imidazol-2-yl]-2-pyridyl]phenoxy]-2,2-dimethylpropanoic acid], the figures for the inhibition in vivo at 5 mg/kg in the assay on ICR mice and in the assay with C57BL/6J mice were 68% and 21%, respectively.

In the case of `CCCc1cnc(-c2ccc(-c3ccc(OCC(C)(C)C(=O)O)cc3)nc2)[nH]1` [Example 32], the inhibition in vivo at 5 mg/kg was 71% in the assay on ICR mice and 42% in the assay on C57BL/6J mice.

Consider `CCC(CC)(COc1ccc(-c2ccc(-c3ncc(C(F)(F)F)[nH]3)cn2)cc1)C(=O)O` [Example 19-3), 2-ethyl-2-[[4-[5-[4-(trifluoromethyl)-1H-imidazol-2-yl]-2-pyridyl]phenoxy]methyl]butanoic acid], for which the inhibition in vivo at 5 mg/kg in the assay with ICR mice is 89%; in the assay on C57BL/6J mice it was 78%.

As for `CC(C)(COc1ccc(-c2ccc(-c3ncc(C(F)(F)F)[nH]3)cn2)cn1)C(=O)O` [Example 13-3), 2,2-dimethyl-3-[[5-[5-[4-(trifluoromethyl)-1H-imidazol-2-yl]-2-pyridyl]-2-pyridyl]oxy]propanoic acid], the inhibition in vivo at 5 mg/kg with ICR mice was 51%; in the assay with C57BL/6J mice, 60%.

On to `O=C(O)C1(COc2ccc(-c3ccc(-c4ncc(C(F)(F)F)[nH]4)nc3)cn2)CCCC1` [Example 16], for which the inhibition in vivo at 5 mg/kg in the assay with ICR mice came to 74%; with C57BL/6J mice, 75%.

`Cc1cc(OCC(C)(C)C(=O)O)ccc1-c1ccc(-c2ncc(C(F)(F)F)[nH]2)cn1` [Example 9]: the inhibition in vivo at 5 mg/kg came out at 75% in the assay on ICR mice and 76% with C57BL/6J mice.

For `Cc1cc(OCC(C)(C)C(=O)O)ncc1-c1ccc(-c2ncc(CC(C)C)[nH]2)cc1` [Example 104], the inhibition in vivo at 5 mg/kg was determined as 67% with ICR mice and 62% in the assay with C57BL/6J mice.

For the molecule `CC(C)(COc1ncc(-c2ccc(-c3ncc(C(F)(F)F)[nH]3)cc2)cc1F)C(=O)O` [Example 90], the inhibition in vivo at 5 mg/kg with ICR mice was found to be 83%; in the assay on C57BL/6J mice, 75%.

On to `Cc1cc(OCC(C)(C)C(=O)O)ncc1-c1ccc(-c2ncc(CC3CC3)[nH]2)nc1` [Example 118], for which the values for the inhibition in vivo at 5 mg/kg in the assay with ICR mice and in the assay on C57BL/6J mice were 64% and 61%, respectively.

Consider `CC(C)(COc1ccc(-c2ccc(-c3ncc(C(C)(C)C)[nH]3)cn2)cc1)C(=O)O` [Example 57], for which the inhibition in vivo at 5 mg/kg in the assay on ICR mice came out at 43%.

For the molecule `Cc1cc(OCC(C)(C)C(=O)O)ncc1-c1ccc(-c2ncc(C3(C(F)(F)F)CCC3)[nH]2)nc1` [Example 46], the inhibition in vivo at 5 mg/kg in the assay on ICR mice amounted to 13%.

`Cc1cc(OCC2(C(=O)O)CC2)ncc1-c1ccc(-c2ncc(C(F)(F)F)[nH]2)c(Cl)c1` [Example 100-5), 1-{[(5-{3-chloro-4-[5-(trifluoromethyl)-1H-imidazol-2-yl]phenyl}-4-methylpyridin-2-yl)oxy]methyl}cyclopropanecarboxylic acid]: the inhibition in vivo at 5 mg/kg in the assay with ICR mice was found to be 60%.

`O=C(O)CCCCOc1ccc(-c2ccc(-c3ncc(C(F)(F)F)[nH]3)cn2)cc1` [Example 15]: in the assay on ICR mice, the inhibition in vivo at 5 mg/kg is 32%.

Regarding `CC(C)(COc1ccc(-c2ccc(-c3ncc(CCC(F)(F)F)[nH]3)cn2)cc1)C(=O)O` [Example 24], in the assay on ICR mice, the inhibition in vivo at 5 mg/kg was 33%.

Turning to `CC(C)(COc1ccc(-c2ccc(-c3ncc(C(C)(C)C(F)(F)F)[nH]3)cn2)cc1)C(=O)O` [Example 2-3), sodium 2,2-dimethyl-3-(4-{5-[5-(2,2,2-trifluoro-1,1-dimethylethyl)-1H-imidazol-2-yl]pyridin-2-yl}phenoxy)propanoate], the inhibition in vivo at 30 mg/kg in the assay on KK-Ay mice (setting [1]) was 64%; with KK-Ay mice (setting [2]), 62%; in the assay on KK-Ay mice (read-out: Weight gain-inhibiting action (30 mg/kg/day)), 53%.

As for `O=C(O)CCCOc1ccc(-c2ccc(-c3ncc(C(F)(F)F)[nH]3)cn2)cc1` [Example 11], the inhibition in vivo at 5 mg/kg with ICR mice stood at 31%.

As to `O=C(O)C1(COc2ccc(-c3ccc(-c4ncc(C(F)(F)F)[nH]4)cn3)cc2)CCOCC1` [Example 21], in the assay on ICR mice, the inhibition in vivo at 5 mg/kg stood at 20%.

As for `CC(C)(COc1cnc(-c2ccc(-c3ncc(C(C)(C)C(F)(F)F)[nH]3)cc2)cn1)C(=O)O` [Example 50], in the assay with ICR mice, the inhibition in vivo at 5 mg/kg stood at 21%.

As for `CC(C)(COc1ncc(-c2ccc(-c3ncc(C4(C(F)(F)F)CCC4)[nH]3)cc2)cc1F)C(=O)O` [Example 144], the inhibition in vivo at 5 mg/kg with ICR mice turned out to be 7%.

As for `CC(C)(COc1ccc(-c2ccc(-c3ncc(C4CCC(F)(F)CC4)[nH]3)cn2)cc1)C(=O)O` [Example 34], in the assay with ICR mice, the inhibition in vivo at 5 mg/kg was determined as 19%.

Regarding `CC(C)(COc1ccc(-c2ccc(-c3ncc(C(F)(F)F)[nH]3)c(F)c2F)cn1)C(=O)O` [Example 80], in the assay on ICR mice, the inhibition in vivo at 5 mg/kg is 41%.

For the molecule `CC(C)(COc1ccc(-c2ccc(-c3ncc(C(F)(F)F)[nH]3)cn2)cc1)C(=O)O` [Example 1-3), 2,2-dimethyl-3-(4-{5-[5-(trifluoromethyl)-1H-imidazol-2-yl]pyridin-2-yl}phenoxy)propanoic acid], the figures for the inhibition in vivo at 30 mg/kg with KK-Ay mice (setting [1]) and with KK-Ay mice (setting [2]) were 43% and 58%, respectively.

Turning to `Cc1cc(OCC2(C(=O)O)CC2)ncc1-c1cnc(-c2ncc(C(F)(F)F)[nH]2)c(Cl)c1` [Example 139], the inhibition in vivo at 5 mg/kg in the assay with ICR mice turned out to be 52%.

For `CC(C)(COc1ncc(-c2ccc(-c3ncc(C4(C(F)(F)F)CC4)[nH]3)cc2)cc1F)C(=O)O` [Example 111], the inhibition in vivo at 5 mg/kg in the assay on ICR mice is 41%.

`COc1cc(-c2cnc(OCC(C)(C)C(=O)O)cc2C)ccc1-c1ncc(C(F)(F)F)[nH]1` [Example 129]: the inhibition in vivo at 5 mg/kg in the assay on ICR mice came to 16%.

With `Cc1cc(OCC(C)(C)C(=O)O)ncc1-c1ccc(-c2ncc(CC(C)C)[nH]2)c(C)c1` [Example 103], the inhibition in vivo at 5 mg/kg with ICR mice was determined as 8%.

Consider `CC(C)(COc1cnc(-c2ccc(-c3ncc(C4(C(F)(F)F)CCC4)[nH]3)cc2)cn1)C(=O)O` [Example 48], for which the inhibition in vivo at 5 mg/kg in the assay on ICR mice came out at 23%.

On to `Cc1cc(OCC(C)(C)C(=O)O)ncc1-c1ccc(-c2ncc(C3(C(F)(F)F)CCC3)[nH]2)c(F)c1` [Example 52], for which, in the assay with ICR mice, the inhibition in vivo at 5 mg/kg is 26%.

As to `Cc1cc(-c2cnc(OCC(C)(C)C(=O)O)nc2)ccc1-c1ncc(C(F)(F)F)[nH]1` [Example 145], the inhibition in vivo at 5 mg/kg with ICR mice was 43%.

Consider `CC(C)(COc1ccc(-c2ccc(-c3ncc(C(C)(C)C(F)(F)F)[nH]3)c(F)c2)cn1)C(=O)O` [Example 53], for which the inhibition in vivo at 5 mg/kg in the assay on ICR mice came to 36%.

With `CC(C)(COc1ccc(-c2ccc(-c3ncc(C4CCC4)[nH]3)cn2)cc1)C(=O)O` [Example 55-2), 3-[4-[5-(5-cyclobutyl-1H-imidazol-2-yl)-2-pyridyl]phenoxy]-2,2-dimethylpropanoic acid], the inhibition in vivo at 5 mg/kg in the assay on C57BL/6J mice came out at 39%.

Take `CCC(CC)(COc1cc(C)c(-c2ccc(-c3ncc(C(F)(F)F)[nH]3)nc2)cn1)C(=O)O` [Example 127]: in the assay with ICR mice, the inhibition in vivo at 5 mg/kg worked out at 44%.

Turning to `CC(C)(COc1ccc(-c2ccc(-c3nc(C(F)(F)F)c[nH]3)cn2)cc1)C(=O)O` [Example 94-3), 2,2-dimethyl-3-[4-[5-[4-(trifluoromethyl)-1H-imidazol-2-yl]-2-pyridyl]phenoxy]propanoic acid], in the assay with KK-Ay mice (setting [3]), the Hypoglycemic action amounted to 42%* and the “Insulin in blood plasma-lowering action” value worked out at 29%*.

With `Cc1cc(OCC(C)(C)C(=O)O)ncc1-c1ccc(-c2ncc(C(F)(F)F)[nH]2)c(C2CC2)c1` [Example 131], the inhibition in vivo at 5 mg/kg in the assay on ICR mice came out at 57%.
